Here are results for 20 molecules from patent US7524964B2, “Tetrahydrothiopyrano pyrazole cannabinoid modulators” (Janssen Pharmaceutica NV, priority 2005, dated 2009).

The structures appear in SMILES notation.

The target of one assay is T1, human CB-2 receptor (Homo sapiens, UniProt P34972).
T1 construct: expressed in transfected cells; host or cells: SK-N-MC cells, pcDNA3 CB-2 (human), semi-purified membranes
The assay can be described thus: Binding assay, cannabinoid CB2 receptor ([3H]-CP-55,940 displacement). The following applies: for inhibition at 1 µM: test concentration 1 μM (superscript b); for inhibition at 1 µM / inhibition at 0.2 µM / inhibition at 10 µM: read-out: CB2 binding percent inhibition; for inhibition at 0.2 µM: test concentration 0.2 μM (superscript a). The procedure: (§1) Binding Assay for CB1 or CB2 Agonists or Inverse Agonists
(§2) The human CB-1 and CB-2 receptors were stably expressed in SK-N-MC cells transfected with pcDNA3 CB-1 (human) or pcDNA3 CB-2 (human). The cells were grown in T-180 cell culture flasks under standard cell culture conditions at 37° C. in a 5% CO2 atmosphere. The cells were harvested by trypsinization and homogenized in a homogenization buffer (10 mM Tris, 0.2 mM MgCl2, 5 mM KCl, with protease inhibitors aprotinin, leupeptin, pepstatin A and bacitracin) and centrifuged (2000 g). The supernatant was then centrifuged in 2M sucrose (31,300 g) to produce a semi-purified membrane pellet. The pellet was resuspended in homogenization and store at −80° C.
(§3) On the day of the assay, the pellet was thawed on ice and diluted in assay buffer (50 mM Tris-HCl, 5 mM MgCl2, 2.5 mM EDTA, 0.5 mg/mL fatty acid free bovine serum albumin, pH 7.5). The diluted membrane was added with buffer, test compound or standard and the radioligand [H]^3+-CP-55,940_(0.2 nM) to the wells of a 96-well polypropylene plate. Non-specific binding was measured in wells containing 10 uM WIN 55,212. The plate was covered and incubated for 90 minutes at 30° C. The contents were then aspirated onto a Packard Unifilter G/C filter bottom plate prewet with 0.5% polyethyleneimine. The wells of the polypropylene plate were rinsed and aspirated seven times with a 0.9% saline-0.5% Tween 20 solution. The Unifilter plate was dried, a scintillation cocktail was added to each well and the counts representing binding were quantitated in a TopCount scintillation counter.
(§4) The IC50 binding values for compounds tested were calculated by linear regression and were obtained from studies in which varying compound concentrations were used. Where an IC50 was not obtained, test results are provided as percent inhibition at a test concentration of ^a0.2 μM, ^b1 μM or ^c10 μM.

Another assay addresses human CB1 receptor (Homo sapiens, UniProt P21554). The assay can be described thus: Binding assay, cannabinoid CB1 receptor ([3H]-CP-55,940 displacement). Set-up: expressed in transfected cells; host or cells: SK-N-MC cells, pcDNA3 CB-1 (human), semi-purified membranes. The following applies: for inhibition at 1 µM: test concentration 1 μM (superscript b); for inhibition at 1 µM / inhibition at 0.2 µM / inhibition at 10 µM: read-out: CB1 binding percent inhibition; for inhibition at 0.2 µM: test concentration 0.2 μM (superscript a); for inhibition at 10 µM: test concentration 10 μM (superscript c). The protocol:
as §1, §2, §3, §4

[1] abbreviates: test concentration 10 μM (superscript c).

human CB1 receptor, sequence (P21554 whole entry): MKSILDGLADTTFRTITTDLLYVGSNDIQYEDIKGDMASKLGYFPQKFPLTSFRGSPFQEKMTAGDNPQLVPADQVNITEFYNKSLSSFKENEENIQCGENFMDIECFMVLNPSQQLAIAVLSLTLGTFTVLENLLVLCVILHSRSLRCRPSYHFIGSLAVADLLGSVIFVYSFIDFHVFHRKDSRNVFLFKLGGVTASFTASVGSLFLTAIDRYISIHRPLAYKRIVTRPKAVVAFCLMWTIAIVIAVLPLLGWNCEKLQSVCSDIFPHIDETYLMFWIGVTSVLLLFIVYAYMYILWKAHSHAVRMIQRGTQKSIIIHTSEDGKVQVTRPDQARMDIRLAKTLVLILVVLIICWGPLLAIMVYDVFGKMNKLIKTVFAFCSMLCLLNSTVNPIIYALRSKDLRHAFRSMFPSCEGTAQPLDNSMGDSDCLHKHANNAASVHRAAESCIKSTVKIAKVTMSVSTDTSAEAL
T1 sequence (P34972 whole entry): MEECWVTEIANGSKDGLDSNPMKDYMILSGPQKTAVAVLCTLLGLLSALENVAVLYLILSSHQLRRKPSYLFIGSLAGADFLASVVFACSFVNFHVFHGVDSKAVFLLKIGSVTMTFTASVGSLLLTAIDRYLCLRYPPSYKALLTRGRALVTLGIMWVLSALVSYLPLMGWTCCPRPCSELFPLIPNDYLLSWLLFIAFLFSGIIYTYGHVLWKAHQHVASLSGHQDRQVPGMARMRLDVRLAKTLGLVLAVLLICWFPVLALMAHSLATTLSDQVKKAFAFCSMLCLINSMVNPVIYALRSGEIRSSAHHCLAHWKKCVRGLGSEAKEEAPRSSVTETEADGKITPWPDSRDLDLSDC

One may read the inhibition as the relative decrease from the control value, in per cent. As to `C[C@@H](NS(=O)(=O)/C=C/c1c2c(nn1Cc1ccccc1)CCS(=O)(=O)C2)c1ccccc1` [Cpd 4, (E)-2-(2-benzyl-5,5-dioxo-4,5,6,7-tetrahydro-2H-5λ^6-thiopyrano[4,3-c]pyrazol-3-yl)-ethenesulfonic acid [(1R)-1-phenyl-ethyl]-amide], the inhibition at 1 µM on human CB-2 receptor was 0%; on human CB1 receptor, 12%.
As to `O=S1(=O)Cc2c(/C=C/S(=O)(=O)NN3CCOCC3)nn(-c3ccc(F)cc3F)c2C(Cc2cccc(F)c2)C1` (stereo not drawn) [Cpd 44, (E)-2-[1-(2,4-difluoro-phenyl)-7-(3-fluoro-benzyl)-5,5-dioxo-4,5,6,7-tetrahydro-1H-5λ^6-thiopyrano[4,3-c]pyrazol-3-yl]-ethenesulfonic acid morpholin-4-ylamide], the inhibition at 0.2 µM at human CB-2 receptor amounted to 9%; at human CB1 receptor, 3%.
Take `CCOC(=O)[C@@H]1C2CCC(C2)[C@@H]1NC(=O)c1nn(-c2ccc(F)cc2F)c2c1CS(=O)(=O)C[C@H]2Cc1cccc(F)c1` (stereo partly drawn) [Cpd 50, (2R,3S)-3-{[1-(2,4-difluoro-phenyl)-(7S)-(3-fluoro-benzyl)-5,5-dioxo-4,5,6,7-tetrahydro-1H-5λ^6-thiopyrano[4,3-c]pyrazole-3-carbonyl]-amino}-bicyclo[2.2.1]heptane-2-carboxylic acid ethyl ester]: the figures for the inhibition at 0.2 µM on human CB-2 receptor and at human CB1 receptor were 24% and 50%, respectively.
For `O=C(NCc1ccccn1)c1nn(-c2ccc(Cl)cc2Cl)c2c1C[S+]([O-])C/C2=C\c1ccc(F)cc1` (stereo not drawn) [Cpd 80, (7Z)-1-(2,4-dichloro-phenyl)-7-(4-fluoro-benzylidene)-5-oxo-4,5,6,7-tetrahydro-1H-5λ^4-thiopyrano[4,3-c]pyrazole-3-carboxylic acid (pyridin-2-ylmethyl)-amide], in that order: 2% and 21%.
For the molecule `C[C@H](NS(=O)(=O)/C=C/c1nn(Cc2ccccc2)c2c1CSCC2)C1CCCCC1` [Cpd 12, (E)-2-(1-benzyl-1,4,6,7-tetrahydro-thiopyrano[4,3-c]pyrazol-3-yl)-ethenesulfonic acid [(1S)-1-cyclohexyl-ethyl]-amide], the inhibition at 1 µM at human CB-2 receptor was 42%; on human CB1 receptor, 15%.
The IC50 is the point on the concentration scale where inhibition reaches its midpoint. A low value points to greater potency in that assay. Consider `O=C(N[C@H]1c2ccccc2C[C@H]1O)c1nn(-c2ccc(Cl)cc2Cl)c2c1CS(=O)(=O)C/C2=C\c1ccc(F)cc1` [Cpd 70, (7Z)-1-(2,4-dichloro-phenyl)-7-(4-fluoro-benzylidene)-5,5-dioxo-4,5,6,7-tetrahydro-1H-5λ^6-thiopyrano[4,3-c]pyrazole-3-carboxylic acid [(1S,2R)-2-hydroxy-indan-1-yl]-amide], for which, on human CB-2 receptor, the inhibition at 0.2 µM came to 19%. For the same molecule, at human CB1 receptor, the IC50 amounted to 12 nM.
Consider `C[C@H](NC(=O)c1c2c(nn1-c1ccc(Cl)cc1Cl)/C(=C/c1ccc(F)cc1)CSC2)C1CCCCC1` [Cpd 90, (7Z)-2-(2,4-dichloro-phenyl)-7-(4-fluoro-benzylidene)-2,4,6,7-tetrahydro-thiopyrano[4,3-c]pyrazole-3-carboxylic acid [(1S)-1-cyclohexyl-ethyl]amide], for which the figures for the inhibition at 0.2 µM on human CB-2 receptor and on human CB1 receptor were 18% and 31%, respectively.
For `O=C(NN1CCCCC1)c1c2c(nn1-c1ccc(Cl)cc1Cl)/C(=C/c1ccc(F)cc1)CSC2` [Cpd 88, (7Z)-2-(2,4-dichloro-phenyl)-7-(4-fluoro-benzylidene)-2,4,6,7-tetrahydro-thiopyrano[4,3-c]pyrazole-3-carboxylic acid piperidin-1-ylamide], in that order: 9% and 46%.
With `O=C(NN1CCCCC1)c1nn(-c2ccc(Cl)cc2Cl)c2c1CSC/C2=C\c1ccc(F)cc1` [Cpd 54, (7Z)-1-(2,4-dichloro-phenyl)-7-(4-fluoro-benzylidene)-1,4,6,7-tetrahydro-thiopyrano[4,3-c]pyrazole-3-carboxylic acid piperidin-1-ylamide], at human CB-2 receptor, the inhibition at 0.2 µM stood at 25%. Moreover, the IC50 at human CB1 receptor was found to be 34 nM.
Consider `C[C@H](NC(=O)c1c2c(nn1-c1ccc(Cl)cc1Cl)/C(=C/c1ccc(F)cc1)CS(=O)(=O)C2)C1CCCCC1` [Cpd 85, (7Z)-2-(2,4-dichloro-phenyl)-7-(4-fluoro-benzylidene)-5,5-dioxo-4,5,6,7-tetrahydro-2H-5λ^6-thiopyrano[4,3-c]pyrazole-3-carboxylic acid [(1S)-1-cyclohexyl-ethyl]-amide], for which the inhibition at 0.2 µM on human CB-2 receptor is 20%. Further, the IC50 at human CB1 receptor came to 35 nM.
Take `C[C@H](NC(=O)/C=C/c1nn(Cc2ccccc2)c2c1C[S+]([O-])CC2)c1ccccc1` (stereo partly drawn) [Cpd 34, (2E)-3-(1-benzyl-5-oxo-4,5,6,7-tetrahydro-1H-5λ^4-thiopyrano[4,3-c]pyrazol-3-yl)-N-[(1S)-1-phenyl-ethyl]-acrylamide]: the inhibition at 10 µM at human CB-2 receptor (setting [1]) was found to be 21%; on human CB1 receptor, 11%.
Take `O=C(NN1CCCCC1)c1c2c(nn1-c1ccc(Cl)cc1Cl)/C(=C/c1ccc(F)cc1)CS(=O)(=O)C2` [Cpd 83, (7Z)-2-(2,4-dichloro-phenyl)-7-(4-fluoro-benzylidene)-5,5-dioxo-4,5,6,7-tetrahydro-2H-5λ^6-thiopyrano[4,3-c]pyrazole-3-carboxylic acid piperidin-1-ylamide]: at human CB-2 receptor, the inhibition at 0.2 µM came to 17%. The half-maximal inhibitory concentration (IC50) at human CB1 receptor came out at 27 nM.
Regarding `C[C@H](NS(=O)(=O)/C=C/c1nn(Cc2ccccc2)c2c1CS(=O)(=O)CC2)c1ccccc1` [Cpd 18, (E)-2-(1-benzyl-5,5-dioxo-4,5,6,7-tetrahydro-1H-5λ^6-thiopyrano[4,3-c]pyrazol-3-yl)-ethenesulfonic acid [(1S)-1-phenyl-ethyl]-amide], the figures for the inhibition at 1 µM on human CB-2 receptor and on human CB1 receptor were 40% and 0%, respectively.
With `C[C@H](NS(=O)(=O)/C=C/c1c2c(nn1Cc1ccccc1)CCS(=O)(=O)C2)c1ccccc1` [Cpd 10, (E)-2-(2-benzyl-5,5-dioxo-4,5,6,7-tetrahydro-2H-5λ^6-thiopyrano[4,3-c]pyrazol-3-yl)-ethenesulfonic acid [(1S)-1-phenyl-ethyl]-amide], the inhibition at 1 µM on human CB-2 receptor came to 36%; at human CB1 receptor, 0%.
On to `O=C(NN1CCCCC1)c1nn(-c2ccc(Cl)cc2Cl)c2c1C[S+]([O-])C/C2=C\c1ccc(F)cc1` (stereo not drawn) [Cpd 79, (7Z)-1-(2,4-dichloro-phenyl)-7-(4-fluoro-benzylidene)-5-oxo-4,5,6,7-tetrahydro-1H-5λ^4-thiopyrano[4,3-c]pyrazole-3-carboxylic acid piperidin-1-ylamide], for which the inhibition at 0.2 µM on human CB-2 receptor was found to be 10%. On human CB1 receptor, the IC50 was determined as 160 nM.
For the molecule `C[C@H](NS(=O)(=O)/C=C/c1nn(-c2ccc(F)cc2F)c2c1CSCC2Cc1cccc(F)c1)c1ccccc1` (stereo partly drawn) [Cpd 38, (E)-2-[1-(2,4-difluoro-phenyl)-7-(3-fluoro-benzyl)-1,4,6,7-tetrahydro-thiopyrano[4,3-c]pyrazol-3-yl]-ethenesulfonic acid [(1S)-1-phenyl-ethyl]-amide], the inhibition at 0.2 µM at human CB-2 receptor came out at 15%; on human CB1 receptor, 28%.
Take `C[C@@H](NS(=O)(=O)/C=C/c1nn(Cc2ccccc2)c2c1CS(=O)(=O)CC2)c1ccccc1` [Cpd 9, (E)-2-(1-benzyl-5,5-dioxo-4,5,6,7-tetrahydro-1H-5λ^6-thiopyrano[4-3-c]pyrazol-3-yl)-ethenesulfonic acid [(1R)-1-phenyl-ethyl]-amide]: the inhibition at 1 µM at human CB-2 receptor and on human CB1 receptor was 6% each time.
Regarding `C[C@H](NC(=O)/C=C/c1nn(Cc2ccccc2)c2c1CS(=O)(=O)CC2)c1ccccc1` [Cpd 36, (2E)-3-(1-benzyl-5,5-dioxo-4,5,6,7-tetrahydro-1H-5λ^6-thiopyrano[4,3-c]pyrazol-3-yl)-N-[(1S)-1-phenyl-ethyl]-acrylamide], on human CB1 receptor, the inhibition at 1 µM amounted to 25.5% and the inhibition at 10 µM was found to be 1%.
As for `CC(NS(=O)(=O)/C=C/c1c2c(nn1Cc1ccccc1)CC[S+]([O-])C2)C1CCCCC1` (stereo not drawn) [Cpd 26, (E)-2-(2-benzyl-5-oxo-4,5,6,7-tetrahydro-2H-5λ^4-thiopyrano[4,3-c]pyrazol-3-yl)-ethenesulfonic acid (1-cyclohexyl-ethyl)-amide], the “CB2 binding percent inhibition” value at human CB-2 receptor (test concentration 10 μM (superscript c), 10 µM) came to 32%. For the same molecule, the inhibition at 10 µM at human CB-2 receptor (setting [1]) was 22%.
As to `CC(NS(=O)(=O)/C=C/c1nn(Cc2ccccc2)c2c1C[S+]([O-])CC2)c1ccccc1` (stereo not drawn) [Cpd 29, (E)-2-(1-benzyl-5-oxo-4,5,6,7-tetrahydro-1H-5λ^4-thiopyrano[4,3-c]pyrazol-3-yl)-ethenesulfonic acid (1-phenyl-ethyl)-amide], the inhibition at 10 µM on human CB1 receptor came to 8%.
